Experimental findings from US20040077715A1, “Use of an isothiocyanate, a thiocyanate or a mixture thereof as depigmenting agent” (priority 2001, published 2004) are described below.

Series [1] concerns fungal tyrosinase (EC. 1.14.18.1). Briefly: Measurement of the power to inhibit tyrosinase (L-Dopa oxidation to dopachrome, O.D. at 475 nm). Format: biochemical. Particulars: for Concentration which inhibits the enzymatic activity of tyrosinase by 50%: fungal tyrosinase, L-Dopa substrate, pH 6.5, 30° C.; for Times more active than hydroquinone in inhibiting tyrosinase: relative to hydroquinone. The method, then:
The following reaction is used: colourless L-Dopa (L-3,4-dihydroxyphenylalanine, obtained from Sigma (ref. D-9628)) is oxidized to coloured dopachrome, which absorbs at 475 nm. This reaction is catalyzed by fungal tyrosinase (EC. 1.14.18.1, obtained from Sigma (ref. T-7755)). The kinetics of the reaction are recorded by the measurement of the optical density (O.D.) as a function of the time at 30° C.
The compositions of the various solutions used are as follows:
L-Dopa at 0.35% (w/v) in the pH 6.5 buffer solution.
The inhibiting molecules are dissolved directly in the pH 6.5 buffer, in 50% methanol (methanol/distilled water) or in pure methanol, depending upon their solubility.
The concentrations in weight by volume of the various solutions of inhibitors are: 0.2%, 0.1%, 0.05%, 0.025%, 0.0125%, 0.00625% and 0.00312%.
Tyrosinase at 0.010% (w/v) in the pH 6.5 buffer solution.
The amounts of these various solutions used during the tests are presented in Tables 1 and 2 for each reaction studied:
The action of tyrosinase is evaluated by the initial rate of the reaction measured on the O.D. recording.
The initial rates of reactions without inhibitors (concentration 0) and the rates at the various concentrations tested are plotted on a curve.
The inhibiting power of a molecule is defined as the concentration which reduces the action of tyrosinase by 50%.

Series [2] concerns pigmented skin of guinea pigs. In words: Test of the depigmenting power on pigmented guinea pigs. Particulars: glycerol-based cream comprising 5% of product, twice daily. The method, then:
Guinea pigs with a pigmented skin, shaved beforehand, received twice daily, 5 days out of 7, during one to two months of treatment, applications of a glycerol-based cream comprising 5% of kojic acid (ref. Aldrich 22,046-9) or 5% of hydroquinone (ref. Aldrich H 1,790-2) or 5% of benzoyl isothiocyanate (ref. Aldrich 30,818-8) or 5% of synthetic sulforaphane prepared according to Example 3. These applications were carried out on circular regions with a diameter of 2 cm pinpointed by indelible marking using yellow ink.

For a further series, the system named is cultured melanocytes. Briefly: Power to inhibit the synthesis of melanin with regard to cultured melanocytes. Format: cell-based. Particulars: for Effect on the synthesis of melanin (in words) / Inhibition of the synthesis of melanin: concentration of 0.00035%; for Inhibition of the synthesis of melanin: 8 independent tests. How it is done:
These tests were carried out on different batches of cells during experiments which were independent and repeated (8 times).
The results are expressed in mg/ml of melanin in so far as the cells are inoculated at the same concentration.

Series [3] concerns Type-6 pigmented epidermis (reconstituted human skin). Briefly: Power to inhibit the synthesis of melanin with regard to pigmented human skin reconstituted in culture. Format: cell-based. As to conditions: daily for 5 days, then two further days. How it is done: Type-6 pigmented epidermis (corresponding to black skin), in a proportion of three samples per test, were treated daily for 5 days with a control cream with the following composition (as % by weight): [table] with kojic acid at a concentration of 3.5×10^−5 (w/w) and with sulforaphane at a concentration of 3.5×10^−6 (w/w) in the same cream acting as excipient. At the end of the treatment, the culture skin is left for a further two days and the melanin is extracted from the treated skin and from the control skin with a mixture of solvents and sodium hydroxide (Solvable® from Packard Bioscience B.V.) and the melanin extracted is quantified by colorimetry according to a method described previously (Chemical Characterization of Hair Melanins in Various Coat-Color Mutants of Mice; Hiroyuki Ozeki et al., J. Invest.

Regarding `CC(=O)N=C=S` [Acetyl isothiocyanate], the “Concentration which inhibits the enzymatic activity of tyrosinase by 50%” value in series [1] is 0.055 % (weight/volume).
As to `O=C(N=C=S)c1ccccc1` [Benzoyl isothiocyanate], the “Desquamation of the skin at the application spots” value in series [2] (5 days out of 7) is reported as “desquamation of the skin”. Further, in the series on cultured melanocytes, the “Effect on the synthesis of melanin (in words)” value (from here on “Effect on the synthesis”) is reported as “no longer have an effect” and the “Inhibition of the synthesis of melanin” value was 9.5%. For the same compound, in series [1], the “Concentration which inhibits the enzymatic activity of tyrosinase by 50%” value is reported as 0.0063 % (weight/volume) and the “Times more active than hydroquinone in inhibiting tyrosinase” value was “approximately 24 times”.
Take `S=C=NCc1ccccc1` [Benzyl isothiocyanate]: the “Concentration which inhibits the enzymatic activity of tyrosinase by 50%” value in series [1] is reported as 0.0980 % (weight/volume).
Same read-out and setting: the result for `N#CSCc1ccccc1` [Benzyl thiocyanate] reads 0.25 % (weight/volume); that for `S=C=NC1CCCCC1` [Cyclohexyl isothiocyanate], 0.104 % (weight/volume).
With `Oc1ccc(O)cc1` [Hydroquinone], in the series on cultured melanocytes, the “Effect on the synthesis” value is recorded as “inhibit the synthesis of melanin” and the “Inhibition of the synthesis of melanin” value is given as 42%. Moreover, the Cytotoxicity entry in the series with cultured melanocytes (cultured melanocytes) is “excessively high cytotoxicity”. In addition, the “Concentration which inhibits the enzymatic activity of tyrosinase by 50%” value in series [1] was 0.154 % (weight/volume).
For the compound `O=c1cc(CO)occ1O` [Kojic acid, kojic acid, reference compound], the “Whitening of the skin” value in series [2] (5 days out of 7, after treating for 4 weeks) is given as “no effect”. Moreover, the “Inhibition of the synthesis of melanin (melatonin [sic])” value in series [3] (3.5×10^−5 (w/w) in cream) worked out at 8%. For the same compound, in the series on cultured melanocytes, the “Effect on the synthesis” value is “no longer have an effect” and the “Inhibition of the synthesis of melanin” value is 1%.
On to `N#C[S-].[K+]` [Potassium thiocyanate], for which the “Concentration which inhibits the enzymatic activity of tyrosinase by 50%” value in series [1] is listed as 0.20 % (weight/volume).
With `C[S+]([O-])CCCCN=C=S` (centres unmarked) [Sulforaphane], in series [3] (3.5×10^−6 (w/w) in cream), the “Inhibition of the synthesis of melanin (melatonin [sic])” value is listed as 30%. Besides, in the series with cultured melanocytes, the “Effect on the synthesis” value was “inhibit the synthesis of melanin” and the “Inhibition of the synthesis of melanin” value is recorded as 26.22%. Besides, in series [1], the “Concentration which inhibits the enzymatic activity of tyrosinase by 50%” value was 0.103 % (weight/volume) and the “Times more active than hydroquinone in inhibiting tyrosinase” value was “approximately 1.5 times”.
